Measured values taken from article PMC6218659, “Structures of DPAGT1 Explain Glycosylation Disease Mechanisms and Advance TB Antibiotic Design” (Cell, 2018).
Changes are numbered by the printed parent chain. Values after ≈ are worked out from the molar mass of the structure shown. Structures can show the parent of a compound that is named as a salt. Where two headings read alike, the source gives them in different places.

Assays:
Mtb H37Rv ATCC27294 = test: Minimum inhibitory concentrations testing against Mtb; format: cell-based, Mycobacterium tuberculosis; conditions: for MIC: Mycobacterium tuberculosis, 168 h
B. subtilis EC1524 = test: Micro-broth dilution and drop plate antimicrobial susceptibility test; format: cell-based, Bacillus subtilis; conditions: for Relative Therapeutic Index (RTI), B. subtilis EC1524: minimal lethal dose / MIC, 800 μg mL-1 used for >400
Description: (§1) In a sterile 96-well plate, serial dilutions were made with the test substance to final volume of 50 μl. Inoculum was then prepared in Mueller-Hinton broth to 0.5 McFarland and diluted before adding 50 μl to the well to make ∼1x10^5 CFU/ml. The culture plate was incubated at 35 °C for 20-24 hrs. A positive growth control and sterility wells were also prepared along with the culture wells. Absorbance at OD600 was taken using BMG Labtech SPECTROstar Omega spectrophotometer. MIC is determined by the lowest concentration without growth. IC50 is determined from plotting a dose-response curve, see Data Analysis below. To determine the MBC, using a multi-channel pipette, 1 μl of culture broth was taken from the same 96-well microdilution growth plate and carefully inoculated on surface of MH agar plate. The plate is then incubated for additional 20 hrs. at 35 °C. The MBC value is the lowest concentration without observed growth on the agar.

DPAGT1 Arg301Cys = target: T1, DPAGT1 Arg301Cys (Homo sapiens, UniProt Q9H3H5, R301C); test: Thermostability assay (label free differential scanning fluorimetry); format: binding, H. sapiens; conditions: 50 μM compound
T1 construct: combined with the LIC-adapted primers to amplify the complete DPAGT1 gene, including the desired mutations; 6xHis purification tag with TEV site (N, cleaved yes); made in house; host or cells: Spodoptera frugiperda Sf9 insect cells (baculovirus)
T1 sequence (Q9H3H5 1-408 R301C): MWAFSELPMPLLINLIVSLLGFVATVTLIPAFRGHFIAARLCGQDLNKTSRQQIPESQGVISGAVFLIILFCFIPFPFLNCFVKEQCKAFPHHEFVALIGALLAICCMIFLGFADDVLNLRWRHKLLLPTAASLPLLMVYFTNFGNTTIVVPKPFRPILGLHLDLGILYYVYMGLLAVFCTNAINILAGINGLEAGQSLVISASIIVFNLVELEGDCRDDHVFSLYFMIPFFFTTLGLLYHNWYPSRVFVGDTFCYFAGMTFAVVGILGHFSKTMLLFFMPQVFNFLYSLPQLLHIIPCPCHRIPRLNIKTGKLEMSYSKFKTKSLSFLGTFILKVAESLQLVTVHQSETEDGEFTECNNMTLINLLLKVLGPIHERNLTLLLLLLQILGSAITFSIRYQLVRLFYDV
Description: (§2) Samples with a volume of 40 μl were prepared containing 0.5 mg/ml protein and 50 μM compound or 5% DMSO in GFB. A glass capillary was dipped into each sample, with the capillary held horizontally to ensure that the capillary was full of the sample. The capillaries were placed on the capillary holder on the Nanotemper Prometheus. Technical triplicates of each sample were prepared, and each experiment was conducted with biological triplicates of each protein. PR.ThermControl software was used to run the experiment and analyse the data. A melting curve from 20 °C – 95 °C at 5 °C/min was performed. The minimum of the first derivative of the 330/350nm ratio was used to determine the Tm1/2.

DPAGT1 Leu168Pro = target: T2, DPAGT1 Leu168Pro (Homo sapiens, UniProt Q9H3H5, L168P); test: as above; format: binding, H. sapiens; conditions: 50 μM compound
T2 construct: combined with the LIC-adapted primers to amplify the complete DPAGT1 gene, including the desired mutations; 6xHis purification tag with TEV site (N, cleaved yes); made in house; host or cells: Spodoptera frugiperda Sf9 insect cells (baculovirus)
T2 sequence (Q9H3H5 1-408 L168P): T1 sequence (Q9H3H5 1-408 R301C) with L168P, C301R
Description: as §2

B. cereus ATCC11778 = test: Micro-broth dilution and drop plate antimicrobial susceptibility test; format: cell-based, Bacillus cereus; conditions: for Relative Therapeutic Index (RTI), B. cereus NRRL 11778: minimal lethal dose / MIC, 800 μg mL-1 used for >400
Description: as §1

Raji cells = test: Cell proliferation assay (MTS); format: cell-based, human; conditions: 24 hrs
Description: (§3) In sterile 96-well plate, each well was seeded with ∼1x10^5 cells. The cells are then grown confluent overnight in 100 μl DMEM with 10% FBS. The medium is replenished with DMEM with 2% FBS and added vehicle control or test substance the next day. For test substance in methanol, stock was added to 25 μl of DMEM with 2% FBS or PBS and placed in the laminar flow hood to let the methanol evaporate (about 1-3 hrs). Once the methanol has evaporated, DMEM with 2% FBS was added to final volume of 100 μl of desired test concentration. […] Cells are grown for additional 24 hrs. The cell viability was determined by using Promega CellTiter 96^© AQueous One Solution Cell Proliferation Assay (3-(4,5-dimethylthiazol-2-yl)-5-(3-carboxymethoxyphenyl)-2-(4-sulfophenyl)-2H-tetrazolium, inner salt; MTS) System following the manufacture protocol.

HEK293 cells = test: Cell proliferation assay (MTS); format: cell-based, human; conditions: for LD50 values, HEK293: MTS cell proliferation assay, 24 hrs, highest concentration 400 µg mL-1; for Minimal Lethal Dose, HEK 293: serial 2-fold dilutions (Table S6)
Description: as §3

HepG2 cells = test: Cell proliferation assay (MTS); format: cell-based, human; conditions: for LD50 values, HepG2: MTS cell proliferation assay, 24 hrs, highest concentration 400 µg mL-1; for Minimal Lethal Dose, HepG2: serial 2-fold dilutions (Table S6)
Description: as §3

[1] = Tolerance testing in uninfected mice; format: in vivo; conditions: uninfected mice (n=5), 10 days, daily 30 mg.kg^-1 ip
Mtb-GFP = format: cell-based, Mycobacterium tuberculosis
[2] = Bacillus subtilis, EC1524, read-out: Minimal Inhibitory Concentration, B. subtilis EC1524
[3] = Bacillus cereus, ATCC 11778 / NRRL11778, read-out: Minimal Inhibitory Concentration, B. cereus NRRL 11778

## N[C@H]1[C@H](O[C@H]2O[C@H](CO)[C@@H](O)[C@H](O)[C@H]2N)O[C@H](C[C@@H](O)[C@H]2O[C@@H](n3ccc(=O)[nH]c3=O)[C@H](O)[C@@H]2O)[C@H](O)[C@@H]1O [TUN, α-D-glucosamine-(1”-11')-tunicamyl uracil dihydrochloride]
Mtb H37Rv ATCC27294; 1-week in 7H9/ADC/Tw (Table S6), read-out: Minimal Inhibitory Concentration, Mtb H37RV a
  MIC: > 60 µg/mL
Mtb H37Rv ATCC27294; 1-week in GAST/Fe (Table S6), read-out: Minimal Inhibitory Concentration, Mtb H37RV b
  MIC: > 60 µg/mL
Mtb H37Rv ATCC27294; Mtb H37Rv, minimal growth medium, read-out: 1-week MIC in GAST/Fe
  MIC: > 60 µg/mL
Mtb H37Rv ATCC27294; Mtb H37Rv, rich 7H9-based growth medium, read-out: 1-week MIC in 7H9/ADC/Tw
  MIC: > 60 µg/mL
B. subtilis EC1524; [2]
  MIC: 100 µg/mL
B. subtilis EC1524
  Relative Therapeutic Index (RTI), B. subtilis EC1524: 8
DPAGT1 Arg301Cys
  Thermostability (Tm1/2) with added compound: 80.9±0.5 °C
DPAGT1 Leu168Pro
  Thermostability (Tm1/2) with added compound: 84.0±0.2 °C
B. cereus ATCC11778; [3]
  MIC: 100 µg/mL
B. cereus ATCC11778
  Relative Therapeutic Index (RTI), B. cereus NRRL 11778: 8
Raji cells
  LD50 values, Raji: 698.3 µg/mL
HEK293 cells
  LD50 values, HEK293: N/A (N/A = not available. No or low cytotoxicity observed at highest, saturating concentration tested (400 µg mL-1))
  Minimal Lethal Dose, HEK 293: > 400 µg/mL
HepG2 cells
  LD50 values, HepG2: N/A (N/A = not available. No or low cytotoxicity observed at highest, saturating concentration tested (400 µg mL-1))
  Minimal Lethal Dose, HepG2: > 400 µg/mL

## CCCCCCCC(=O)N[C@H]1[C@H](O[C@H]2O[C@H](CO)[C@@H](O)[C@H](O)[C@H]2NC(=O)CCCCCCC)O[C@H](C[C@@H](O)[C@H]2O[C@@H](n3ccc(=O)[nH]c3=O)[C@H](O)[C@@H]2O)[C@H](O)[C@@H]1O [TUN-8,8, Di-N-octanoyl-tunicamycin]
Mtb H37Rv ATCC27294
  Relative Therapeutic Index (RTI), Mtb H37RV a: 1140
Mtb H37Rv ATCC27294; read-out: 1-week MIC in 7H9/ADC/Tw
  MIC: 0.7 ± 3.3 µg/mL (≈ 0.855 µM)
Mtb H37Rv ATCC27294; read-out: 1-week MIC in GAST/Fe
  MIC: 0.14 ± 0.1 µg/mL (≈ 0.171 µM)
Mtb H37Rv ATCC27294; read-out: Minimal Inhibitory Concentration, Mtb H37RV a
  MIC: 0.7 µg/mL (≈ 0.855 µM)
Mtb H37Rv ATCC27294; read-out: Minimal Inhibitory Concentration, Mtb H37RV b
  MIC: 0.14 µg/mL (≈ 0.171 µM)
B. subtilis EC1524; Bacillus subtilis, EC1524
  IC50: 0.2 µg/mL (≈ 0.244 µM)
  MBC: > 0.78 µg/mL
  MIC: 0.65 ± 0.22 µg/mL (≈ 0.794 µM)
B. subtilis EC1524; [2]
  MIC: 0.78 µg/mL (≈ 0.952 µM)
B. subtilis EC1524
  Relative Therapeutic Index (RTI), B. subtilis EC1524: 1026
[1]
  tolerance, signs of toxicity: no signs of toxicity
Mtb-GFP
  extracellular release of GFP (lysis): lytic effects
B. cereus ATCC11778; Bacillus cereus, ATCC11778
  IC50: 0.78 µg/mL (≈ 0.952 µM)
  MBC: > 50 µg/mL
  MIC: 5.2 ± 1.8 µg/mL (≈ 6.35 µM)
B. cereus ATCC11778; [3]
  MIC: 6.25 µg/mL (≈ 7.63 µM)
B. cereus ATCC11778
  Relative Therapeutic Index (RTI), B. cereus NRRL 11778: 128
Raji cells
  LD50 values, Raji: 211.05 ± 125.94 µg/mL
HEK293 cells
  LD50 values, HEK293: N/A (N/A = not available. No or low cytotoxicity observed at highest, saturating concentration tested (400 µg mL-1))
  Minimal Lethal Dose, HEK 293: > 400 µg/mL
HepG2 cells
  LD50 values, HepG2: N/A (N/A = not available. No or low cytotoxicity observed at highest, saturating concentration tested (400 µg mL-1))
  Minimal Lethal Dose, HepG2: > 400 µg/mL
